# Measurements as given in US9884841B2, “Small molecule inhibitors of Mcl-1 and uses thereof” (The Regents of the University of Michigan, priority 2015, dated 2018).
# Molecular target: Mcl-1 (Homo sapiens, UniProt Q07820)
# Experiment: FP based binding assay to Mcl-1 (Bid BH3 peptide probe)
# Conditions: not given
# Sequence of Mcl-1 (Q07820 whole entry): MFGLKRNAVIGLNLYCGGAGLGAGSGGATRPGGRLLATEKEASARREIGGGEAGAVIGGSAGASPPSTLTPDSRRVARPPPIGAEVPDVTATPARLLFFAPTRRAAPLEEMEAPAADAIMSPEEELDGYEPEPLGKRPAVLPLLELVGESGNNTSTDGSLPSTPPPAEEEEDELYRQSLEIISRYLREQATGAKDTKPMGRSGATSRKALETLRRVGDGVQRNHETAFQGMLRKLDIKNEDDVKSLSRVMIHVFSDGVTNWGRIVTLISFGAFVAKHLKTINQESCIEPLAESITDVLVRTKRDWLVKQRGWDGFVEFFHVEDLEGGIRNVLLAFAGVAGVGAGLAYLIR
row,"Mcl-1 binding, in words",Compound
1,deleterious,"O=C(O)c1ccccc1NS(=O)(=O)N1CCN(c2ccccc2)CC1 [Compound 460, 2-(1-phenylpiperazine-4-sulfonamido)benzoic acid]"

# Same assay, conditions: Binding affinity of Mcl-1 inhibitors using FP based assay, Table 1
row,Compound,Ki
1,"O=C(O)c1ccccc1NS(=O)(=O)c1ccc2ccccc2c1 [Compound 453, 2-(naphthalene-2-sulfonamido)benzoic acid]",> 2 µM
2,"COC(=O)c1cc(-c2ccc(COc3cccc(C(F)(F)F)c3)cc2)c(C(C)C)cc1NS(=O)(=O)c1ccc(Oc2ccc(F)cc2)cc1 [Compound 481, methyl 4-(4-(4-fluorophenoxy)phenylsulfonamido)-6-isopropyl-4′-((3-(trifluoromethyl)phenoxy)methyl)-[1,1′-biphenyl]-3-carboxylate]",> 2 µM
3,"COC(=O)c1cc(-c2ccc(COc3cccc(C(F)(F)F)c3)cc2)c(C(C)C)cc1NS(=O)(=O)c1ccc2ccccc2c1 [Compound 482, methyl 6-isopropyl-4-(naphthalene-2-sulfonamido)-4′-((3-(trifluoromethyl)phenoxy)methyl)-[1,1′-biphenyl]-3-carboxylate]",> 2 µM
4,"O=C(O)c1cc(NCCc2ccccc2)ccc1NS(=O)(=O)c1ccccc1 [Compound 404, 5-(phenethylamino)-2-(phenylsulfonamido)benzoic acid]",5.74 ± 0.749 µM
5,Cc1cccc(-c2cc(NS(=O)(=O)c3ccccc3)c(C(=O)O)cc2SCCC(=O)Nc2ccccc2)c1 [Compound 485],0.437 ± 0.067 µM
6,"O=C(O)c1ccccc1NS(=O)(=O)N1CCN(c2ccccc2)CC1 [Compound 460, 2-(1-phenylpiperazine-4-sulfonamido)benzoic acid]",> 2 µM
7,"O=C(O)c1ccc(SCCc2ccccc2)cc1NS(=O)(=O)c1ccccc1 [Compound 702, 4-(Phenethylthio)-2-(phenylsulfonamido)benzoic acid]",2.36 ± 0.116 µM
8,"O=C(Nc1ccc(SCCc2ccccc2)cc1C(=O)O)c1ccccc1 [Compound 364, 2-Benzamido-5-(phenethylthio)benzoic acid]",0.891 ± 0.185 µM
9,"COC(=O)c1cc(-c2ccc(COc3cccc(C(F)(F)F)c3)cc2)c(C(C)C)cc1NC(=O)c1ccc(Oc2ccccc2)cc1 [Compound 486, methyl 6-isopropyl-4-(4-phenoxybenzamido)-4′-((3-(trifluoromethyl)phenoxy)methyl)-[1,1′-biphenyl]-3-carboxylate]",> 2 µM
10,"Nc1ccc(-c2ccccc2COc2cccc(C(F)(F)F)c2)cc1C(=O)O [Compound 467, 4-amino-2′-((3-(trifluoromethyl)phenoxy)methyl)-[1,1′-biphenyl]-3-carboxylic acid]",1.16 ± 0.196 µM
11,"Nc1ccc(SCCc2ccccc2)cc1C(=O)O [Compound 416, 2-Amino-5-(phenethylthio)benzoic acid]",1.45 ± 0.132 µM
12,"Nc1ccc(-c2ccc(COc3cccc(C(F)(F)F)c3)cc2)cc1C(=O)O [Compound 469, 4-amino-4′-((3-(trifluoromethyl)phenoxy)methyl)-[1,1′-biphenyl]-3-carboxylic acid]",2.36 ± 0.08 µM
13,"O=C(CCc1ccccc1)Nc1ccc(SCCc2ccccc2)cc1C(=O)O [Compound 454, 5-(phenethylthio)-2-(3-phenylpropanamido)benzoic acid]",0.874 ± 0.246 µM
14,O=C(CCSc1ccc(NS(=O)(=O)N2CCN(c3ccccc3)CC2)c(C(=O)O)c1)Nc1ccccc1 [Compound 429],2.24 ± 0.431 µM
15,O=C(CSc1ccc(NS(=O)(=O)c2ccccc2)c(C(=O)O)c1)Nc1ccccc1 [Compound 395],> 2 µM
16,"O=C(O)c1cc(SCc2ccccc2)ccc1NS(=O)(=O)c1ccccc1 [Compound 392, 5-(Benzylthio)-2-(phenylsulfonamido)benzoic acid]",0.993 ± 0.178 µM
17,"O=C(O)c1ccccc1NS(=O)(=O)c1ccccc1 [Compound 455, 2-(phenylsulfonamido)benzoic acid]",> 2 µM

# Next, values leading:
row,Ki,Compound
1,0.387 ± 0.138 µM,"O=C(O)c1cc(SCc2ccccc2)ccc1NS(=O)(=O)N1CCN(c2ccccc2)CC1 [Compound 456, 5-(benzylthio)-2-(1-phenylpiperazine-4-sulfonamido)benzoic acid]"
2,0.381 ± 0.066 µM,"O=C(O)c1cc(SCCc2ccccc2)ccc1NS(=O)(=O)c1ccccc1Br [Compound 386, 2-(2-bromophenylsulfonamido)-5-(phenethylthio)benzoic acid]"
3,0.343 ± 0.033 µM,"O=C(O)c1cc(SCCc2ccccc2)ccc1NS(=O)(=O)CCc1ccccc1 [Compound 443, 5-(phenethylthio)-2-(2-phenylethylsulfonamido)benzoic acid]"
4,0.275 ± 0.021 µM,"O=C(O)c1cc(SCCc2ccccc2)ccc1NS(=O)(=O)N1CCN(Cc2ccccc2)CC1 [Compound 414, 2-(1-benzylpiperazine-4-sulfonamido)-5-(phenethylthio)benzoic acid]"
5,0.245 ± 0.048 µM,CC(C)(C)c1ccc(N2CCN(S(=O)(=O)Nc3ccc(SCCC(=O)Nc4ccccc4)cc3C(=O)O)CC2)cc1 [Compound 435]
6,0.241 ± 0.089 µM,O=C(O)c1cc(SCCc2ccccc2)ccc1NS(=O)(=O)Cc1ccc(Cl)cc1 [Compound 398]
7,0.233 ± 0.021 µM,O=C(CCSc1ccc(NS(=O)(=O)c2ccccc2)c(C(=O)O)c1)Nc1ccccc1 [Compound 410]
8,0.2 ± 0.03 µM,"O=C(O)c1cc(SCCc2ccccc2)ccc1NS(=O)(=O)N1CCN(c2ccccc2)CC1 [Compound 396, 5-(Phenethylthio)-2-(1-phenylpiperazine-4-sulfonamido)benzoic acid]"
9,0.094 ± 0.017 µM,"CCCc1ccc(-c2ccc(NS(=O)(=O)c3ccc4ccccc4c3)c(C(=O)O)c2)cc1 [Compound 466, 4-(naphthalene-2-sulfonamido)-4′-propyl-[1,1′-biphenyl]-3-carboxylic acid]"
10,0.079 ± 0.025 µM,"O=C(O)c1cc(SCCc2ccccc2)ccc1NS(=O)(=O)c1ccccc1-c1ccccc1 [Compound 458, 2-([1,1′-biphenyl]-2-ylsulfonamido)-5-(phenethylthio)benzoic acid]"
11,0.07 ± 0.021 µM,"CC(C)c1cc(NS(=O)(=O)c2ccc3ccccc3c2)c(C(=O)O)cc1SCCc1ccccc1 [Compound 478, 4-isopropyl-2-(naphthalene-2-sulfonamido)-5-(phenethylthio)benzoic acid]"
12,0.066 ± 0.027 µM,Cc1cccc(-c2cc(NS(=O)(=O)N3CCN(c4ccc(C(C)(C)C)cc4)CC3)c(C(=O)O)cc2SCCC(=O)Nc2ccccc2)c1 [Compound 479]
13,0.05 ± 0.011 µM,"O=C(O)c1cc(-c2ccccc2COc2cccc(C(F)(F)F)c2)ccc1NS(=O)(=O)c1ccc2ccccc2c1 [Compound 468, 4-(naphthalene-2-sulfonamido)-2′-((3-(trifluoromethyl)phenoxy)methyl)-[1,1′-biphenyl]-3-carboxylic acid]"
14,0.048 ± 0.012 µM,"O=C(O)c1cc(SCCc2ccccc2)ccc1NS(=O)(=O)c1ccc(-c2ccccc2)cc1 [Compound 378, 2-([1,1′-biphenyl]-4-ylsulfonamido)-5-(phenethylthio)benzoic acid]"
15,0.044 ± 0.014 µM,"O=C(O)c1cc(SCCc2ccccc2)ccc1NS(=O)(=O)c1ccc(Oc2ccccc2)cc1 [Compound 376, 5-(Phenethylthio)-2-(4-phenoxyphenylsulfonamido)benzoic acid]"
16,0.042 ± 0.017 µM,CC(C)(C)c1ccc(N2CCN(C(=O)CCc3cccc(-c4ccc(C(=O)O)c(NS(=O)(=O)N5CCN(c6ccc(C(C)(C)C)cc6)CC5)c4)c3)CC2)cc1 [Compound 484]
17,0.036 ± 0.006 µM,"O=C(O)c1cc(-c2ccc(COc3cccc(C(F)(F)F)c3)cc2)ccc1NS(=O)(=O)c1ccc2ccccc2c1 [Compound 471, 4-(naphthalene-2-sulfonamido)-4′-((3-(trifluoromethyl)phenoxy)methyl)-[1,1′-biphenyl]-3-carboxylic acid]"
18,0.035 ± 0.013 µM,"CC(C)c1cc(NS(=O)(=O)c2ccc(Oc3ccccc3)cc2)c(C(=O)O)cc1SCCc1ccccc1 [Compound 476, 4-isopropyl-5-(phenethylthio)-2-(4-phenoxyphenylsulfonamido)benzoic acid]"
19,0.031 ± 0.01 µM,"O=C(O)c1cc(SCCc2ccccc2)ccc1NS(=O)(=O)c1ccc(C2CCCCC2)cc1 [Compound 418, 2-(4-cyclohexylphenylsulfonamido)-5-(phenethylthio)benzoic acid]"
20,0.031 ± 0.009 µM,"O=C(O)c1cc(-c2ccccc2COc2cccc3ccccc23)ccc1NS(=O)(=O)c1ccc2ccccc2c1 [Compound 473, 2′-((naphthalen-1-yloxy)methyl)-4-(naphthalene-2-sulfonamido)-[1,1′-biphenyl]-3-carboxylic acid]"
21,0.023 ± 0.003 µM,"CC(C)c1cc(NS(=O)(=O)c2ccc3ccccc3c2)c(C(=O)O)cc1-c1ccc(COc2cccc(C(F)(F)F)c2)cc1 [Compound 474, 6-isopropyl-4-(naphthalene-2-sulfonamido)-4′-((3-(trifluoromethyl)phenoxy)methyl)-[1,1′-biphenyl]-3-carboxylic acid]"
22,0.013 ± 0.003 µM,"CC(C)c1cc(NS(=O)(=O)c2ccc(Oc3ccccc3)cc2)c(C(=O)O)cc1-c1ccc(COc2cccc(C(F)(F)F)c2)cc1 [Compound 477, 6-isopropyl-4-(4-phenoxyphenylsulfonamido)-4′-((3-(trifluoromethyl)phenoxy)methyl)-[1,1′-biphenyl]-3-carboxylic acid]"
23,0.01 ± 0.003 µM,"CC(C)c1cc(NS(=O)(=O)c2ccc(Oc3ccc(F)cc3)cc2)c(C(=O)O)cc1-c1ccc(COc2cccc(C(F)(F)F)c2)cc1 [Compound 480, 4-(4-(4-fluorophenoxy)phenylsulfonamido)-6-isopropyl-4′-((3-(trifluoromethyl)phenoxy)methyl)-[1,1′-biphenyl]-3-carboxylic acid]"

# Same assay, conditions: R1 optimisation starting from 368
row,improvement of binding potency,Compound
1,16 fold,"O=C(O)c1cc(SCCc2ccccc2)ccc1NS(=O)(=O)c1ccc(-c2ccc(Cl)cc2)cc1 [Compound 380, 2-(4′-chloro-[1,1′-biphenyl]-4-ylsulfonamido)-5-(phenethylthio)benzoic acid]"

# Same assay, conditions: binding affinity to Mcl-1
row,Ki,Compound
1,0.027 ± 0.005 µM,"O=C(O)c1cc(-c2ccc(COc3cccc4ccccc34)cc2)ccc1NS(=O)(=O)c1ccc2ccccc2c1 [Compound 475, 4′-((naphthalen-1-yloxy)methyl)-4-(naphthalene-2-sulfonamido)-[1,1′-biphenyl]-3-carboxylic acid]"
2,0.031 µM,"O=C(O)c1cc(SCCc2ccccc2)ccc1NS(=O)(=O)c1ccc(-c2ccc(Cl)cc2)cc1 [Compound 380, 2-(4′-chloro-[1,1′-biphenyl]-4-ylsulfonamido)-5-(phenethylthio)benzoic acid]"

# Same assay, conditions: relative to 382
row,improvement in comparison with 382,Compound
1,2.5 fold,"CC(C)c1cc(NS(=O)(=O)c2ccc3ccccc3c2)c(C(=O)O)cc1SCCc1ccccc1 [Compound 478, 4-isopropyl-2-(naphthalene-2-sulfonamido)-5-(phenethylthio)benzoic acid]"
2,6 fold,"O=C(O)c1cc(-c2ccc(COc3cccc4ccccc34)cc2)ccc1NS(=O)(=O)c1ccc2ccccc2c1 [Compound 475, 4′-((naphthalen-1-yloxy)methyl)-4-(naphthalene-2-sulfonamido)-[1,1′-biphenyl]-3-carboxylic acid]"
